Reference: patent US20160102073A1, “2-HYDROXYMETHYL-SUBSTITUTED OREXIN RECEPTOR ANTAGONISTS” (MERCK SHARP & DOHME CORP., priority 2013, published 2016)
pIC50: −log10 of the molar value.

Assays:
[1] = target: T1, human orexin-1 receptor (hOX1R) (Homo sapiens, UniProt O43613); assay: FLIPR Ca2+ Flux Assay, CHO cells expressing hOX1R; format: cell-based; settings: agonist 70 pM Ala-6,12 orexin-A
T1 construct: expressed in transfected cells; host or cells: Chinese hamster ovary (CHO) cells, grown under G418 selection
T1 sequence (O43613 1-425): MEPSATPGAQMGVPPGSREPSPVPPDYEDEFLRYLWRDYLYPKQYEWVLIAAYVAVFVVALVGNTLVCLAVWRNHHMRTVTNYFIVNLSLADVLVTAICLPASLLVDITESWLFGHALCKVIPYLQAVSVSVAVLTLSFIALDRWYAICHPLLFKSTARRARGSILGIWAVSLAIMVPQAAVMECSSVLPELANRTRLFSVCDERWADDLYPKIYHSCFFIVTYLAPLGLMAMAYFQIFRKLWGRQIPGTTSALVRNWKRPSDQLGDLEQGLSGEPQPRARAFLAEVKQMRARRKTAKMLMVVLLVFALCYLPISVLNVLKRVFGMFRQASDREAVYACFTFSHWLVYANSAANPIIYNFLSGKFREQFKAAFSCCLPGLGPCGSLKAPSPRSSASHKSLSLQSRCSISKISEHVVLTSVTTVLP
Method: (§1) Chinese hamster ovary (CHO) cells expressing the human orexin-1 receptor (hOX1R) or the human orexin-2 receptor (hOX2R) were grown in Iscove's modified DMEM containing 2 mM L-glutamine, […], 1% hypoxanthine-thymidine supplement, 100 U/ml penicillin, 100 μg/ml streptomycin and 10% heat-inactivated fetal calf serum (FCS). The cells were seeded at 20,000 cells/well into Becton-Dickinson black 384-well clear bottom sterile plates coated with poly-D-lysine. All reagents were from GIBCO-Invitrogen Corp. The seeded plates were incubated overnight at 37° C. and 5% CO2. Ala-6,12 human orexin-A, used as the agonist, was prepared as a 1 mM stock solution in 1% bovine serum albumin (BSA) and diluted in assay buffer (HBSS containing 20 mM HEPES, 0.1% BSA and 2.5 mM probenecid, pH7.4) for use in the assay at a final concentration of 70 pM. Test compounds were prepared as 10 mM stock solution in DMSO, then diluted in 384-well plates, first in DMSO, then assay buffer.
On the day of the assay, cells were washed 3× with 100 μl assay buffer and then incubated for 60 minutes (37° C., 5% CO2) in 60 μl assay buffer containing 1 μM Fluo-4AM ester, 0.02% pluronic acid, and 1% BSA. The dye loading solution was then aspirated and cells were washed 3× with 100 μl assay buffer. 30 μl of that same buffer was left in each well. Within the Fluorescent Imaging Plate Reader (FLIPR, Molecular Devices), test compounds were added to the plate in a volume of 25 μl, incubated for 5 minutes, and then 25 μl of agonist was added. Fluorescence was measured for each well at 1 second intervals for 5 minutes, and the height of each fluorescence peak was compared to the height of the fluorescence peak induced by 70 pM of Ala-6,12 orexin-A with buffer in place of test compound.

[2] = target: T2, human orexin-2 receptor (hOX2R) (Homo sapiens, UniProt O43614); assay: FLIPR Ca2+ Flux Assay, CHO cells expressing hOX2R; format: cell-based; settings: agonist 70 pM Ala-6,12 orexin-A
T2 construct: expressed in transfected cells; host or cells: Chinese hamster ovary (CHO) cells, grown under G418 selection
T2 sequence (O43614 1-444): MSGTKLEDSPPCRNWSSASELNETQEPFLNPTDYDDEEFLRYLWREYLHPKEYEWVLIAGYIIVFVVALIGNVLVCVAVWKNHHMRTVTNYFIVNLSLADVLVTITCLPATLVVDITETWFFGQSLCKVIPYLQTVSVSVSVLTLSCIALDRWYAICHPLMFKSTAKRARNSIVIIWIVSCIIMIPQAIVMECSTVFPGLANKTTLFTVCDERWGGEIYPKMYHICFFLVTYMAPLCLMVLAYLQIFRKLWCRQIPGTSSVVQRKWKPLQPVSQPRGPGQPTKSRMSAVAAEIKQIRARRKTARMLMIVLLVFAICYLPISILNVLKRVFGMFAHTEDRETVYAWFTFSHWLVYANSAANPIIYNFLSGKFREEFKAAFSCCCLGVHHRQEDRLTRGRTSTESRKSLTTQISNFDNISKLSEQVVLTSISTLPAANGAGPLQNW
Method: The utility of the compounds in accordance with the present invention as orexin receptor OX1R and/or OX2R antagonists may be readily determined without undue experimentation by methodology well known in the art, including the “FLIPR Ca^2+ Flux Assay” (Okumura et al., Biochem. Biophys. Res. Comm. 280:976-981, 2001). In a typical experiment the OX1 and OX2 receptor antagonistic activity of the compounds of the present invention was determined in accordance with the following experimental method. For intracellular calcium measurements, Chinese hamster ovary (CHO) cells expressing the rat orexin-1 receptor or the human orexin-2 receptor, are grown in Iscove's modified DMEM containing 2 mM L-glutamine, […], 1% hypoxanthine-thymidine supplement, 100 U/ml penicillin, 100 μg/ml streptomycin and 10% heat-inactivated fetal calf serum (FCS). The cells are seeded at 20,000 cells/well into Becton-Dickinson black 384-well clear bottom sterile plates coated with poly-D-lysine. All reagents were from GIBCO-Invitrogen Corp. The seeded plates are incubated overnight at 37° C. and 5% CO2. Ala-6,12 human orexin-A as the agonist is prepared as a 1 mM stock solution in 1% bovine serum albumin (BSA) and diluted in assay buffer (HBSS containing 20 mM HEPES, 0.1% BSA and 2.5 mM probenecid, pH7.4) for use in the assay at a final concentration of 70 pM. Test compounds are prepared as 10 mM stock solution in DMSO, then diluted in 384-well plates, first in DMSO, then assay buffer. On the day of the assay, cells are washed 3 times with 100 μl assay buffer and then incubated for 60 min (37° C., 5% CO2) in 60 μl assay buffer containing 1 μM Fluo-4AM ester, 0.02% pluronic acid, and 1% BSA. The dye loading solution is then aspirated and cells are washed 3 times with 100 μl assay buffer. 30 μl of that same buffer is left in each well. Within the Fluorescent Imaging Plate Reader (FLIPR, Molecular Devices), test compounds are added to the plate in a volume of 25 μl, incubated for 5 min and finally 25 μl of agonist is added. Fluorescence is measured for each well at 1 second intervals for 5 minutes and the height of each fluorescence peak is compared to the height of the fluorescence peak induced by 70 pM Ala-6,12 orexin-A with buffer in place of antagonist. For each antagonist, IC50 value (the concentration of compound needed to inhibit 50% of the agonist response) is determined. Alternatively, compound potency can be assessed by a radioligand binding assay (described in Bergman et. al. Bioorg. Med. Chem. Lett. 2008, 18, 1425-1430) in which the inhibition constant (Ki) is determined in membranes prepared from CHO cells expressing either the OX1 or OX2 receptor. The intrinsic orexin receptor antagonist activity of a compound which may be used in the present invention may be determined by these assays.
as §1, with “buffer. […]” for “buffer.”

SMILES | pIC50 [1] | pIC50 [2]
CC[C@H](O)c1cccnc1O[C@@H]1CC[C@@H](C)N(C(=O)c2ccccc2-n2nccn2)C1 [Example 32, (1S)-1-(2-{[(3R,6R)-6-methyl-1-{[2-(2H-1,2,3-triazol-2-yl)phenyl]carbonyl}piperidin-3-yl]oxy}pyridin-3-yl)propan-1-ol] | 6.64 | 7.57
C#C[C@H](O)c1cccnc1O[C@@H]1CC[C@@H](C)N(C(=O)c2ccccc2-n2nccn2)C1 [Example 34, (1S)-1-(2-{[(3R,6R)-6-methyl-1-{[2-(2H-1,2,3-triazol-2-yl)phenyl]carbonyl}piperidin-3-yl]oxy}pyridin-3-yl)prop-2-yn-1-ol] | 6.23 | 7.59
C[C@@H]1CC[C@@H](Oc2ncccc2[C@H](O)C(F)(F)F)CN1C(=O)c1ccccc1-n1nccn1 [Example 36, (1S)-2,2,2-Trifluoro-1-(2-{[(3R,6R)-6-methyl-1-{[2-(2H-1,2,3-triazol-2-yl)phenyl]carbonyl}piperidin-3-yl]oxy}pyridin-3-yl)ethanol] | 6.04 | 7.62
CC(O)c1c(C(F)(F)F)ccnc1O[C@@H]1CC[C@@H](C)N(C(=O)c2ccccc2-n2nccn2)C1 (stereo partly drawn) [Example 38, 1-[2-{[(3R,6R)-6-Methyl-1-{[2-(2H-1,2,3-triazol-2-yl)phenyl]carbonyl}piperidin-3-yl]oxy}-4-(trifluoromethyl)pyridin-3-yl]ethanol] | 6.73 | 6.96
C[C@@H]1CC[C@@H](Oc2ncccc2CO)CN1C(=O)c1ccccc1-n1nccn1 [Example 39, (2-{[(3R,6R)-6-Methyl-1-{[2-(2H-1,2,3-triazol-2-yl)phenyl]carbonyl}piperidin-3-yl]oxy}pyridin-3-yl)methanol] | 6.03 | 7.74

Compounds with a higher pIC50 [1], results first:

pIC50 [1] | pIC50 [2] | SMILES
7.19 | 7.57 | CC(O)c1cccnc1O[C@@H]1CC[C@@H](C)N(C(=O)c2ccccc2-n2nccn2)C1 (stereo partly drawn) [Example 31, 1-(2-{[(3R,6R)-6-methyl-1-{[2-(2H-1,2,3-triazol-2-yl)phenyl]carbonyl}piperidin-3-yl]oxy}pyridin-3-yl)ethanol]
7.34 | 7.48 | CC[C@@H](O)c1cccnc1O[C@@H]1CC[C@@H](C)N(C(=O)c2ccccc2-n2nccn2)C1 [Example 33, (1R)-1-(2-{[(3R,6R)-6-methyl-1-{[2-(2H-1,2,3-triazol-2-yl)phenyl]carbonyl}piperidin-3-yl]oxy}pyridin-3-yl) propan-1-ol]
7.19 | 7.57 | C#C[C@@H](O)c1cccnc1O[C@@H]1CC[C@@H](C)N(C(=O)c2ccccc2-n2nccn2)C1 [Example 35, (1R)-1-(2-{[(3R,6R)-6-methyl-1-{[2-(2H-1,2,3-triazol-2-yl)phenyl]carbonyl}piperidin-3-yl]oxy}pyridin-3-yl)prop-2-yn-1-ol]
7.26 | 7.74 | C[C@@H]1CC[C@@H](Oc2ncccc2[C@@H](O)C(F)(F)F)CN1C(=O)c1ccccc1-n1nccn1 [Example 37, (1R)-2,2,2-Trifluoro-1-(2-{[(3R,6R)-6-methyl-1-{[2-(2H-1,2,3-triazol-2-yl)phenyl]carbonyl}piperidin-3-yl]oxy}pyridin-3-yl)ethanol]
6.99 | 7.77 | CCc1ccnc(O[C@@H]2CC[C@@H](C)N(C(=O)c3ccccc3-n3nccn3)C2)c1CO [Example 40, (4-Ethyl-2-{[(3R,6R)-6-methyl-1-{[2-(2H-1,2,3-triazol-2-yl)phenyl]carbonyl}piperidin-3-yl]oxy}pyridin-3-yl)methanol]
7.16 | 7.82 | Cc1ccnc(O[C@@H]2CC[C@@H](C)N(C(=O)c3ccccc3-n3nccn3)C2)c1CO [Example 41, (4-methyl-2-{[(3R,6R)-6-methyl-1-{[2-(2H-1,2,3-triazol-2-yl)phenyl]carbonyl}piperidin-3-yl]oxy}pyridin-3-yl)methanol]
